Results taken from the NIST ThermoML archive (doi:10.1016/j.jct.2008.02.019).
± gives the expanded uncertainty stated by the source.

What was measured:
[1] = 101.33 kPa, Liquid
[2] = refractive index (Na D-line) (dimensionless); settings: 101.33 kPa, Liquid, Standard Abbe refractometry
[3] = xn = mol fraction of the nth substance listed; settings: 101 kPa, Liquid
[4] = excess molar enthalpy (molar enthalpy of mixing); xn = mol fraction of the nth substance listed; settings: 101 kPa, Liquid, Flow calorimetry

Question: Which results are given for CCCC[n+]1ccc(C)cc1.F[B-](F)(F)F [1-butyl-4-methylpyridinium tetrafluoroborate]?
Answer: mass density ([1]; 298.15 K): 1183.49 ± 2.5 kg/m3; mass density ([1]; 318.15 K): 1169.12 ± 2.4 kg/m3; refractive index ([2]; 298.15 K): 1.4517 ± 0.0005; refractive index ([2]; 318.15 K): 1.447 ± 0.0005

Question: Which mass density ([3]; 318.15 K, x1 = 0.5651) does the source give for CCCC[n+]1ccc(C)cc1.F[B-](F)(F)F [1-butyl-4-methylpyridinium tetrafluoroborate] + CCCCCO here?
Answer: Its mass density is 1060.4 ± 1.4 kg/m3.

Question: What about the mass density ([3]; 318.15 K, x1 = 0.6035) of the same compound?
Answer: The mass density was 1072.1 ± 1.5 kg/m3.

Question: And the mass density ([3]; 318.15 K, x1 = 0.6715)?
Answer: The mass density was 1091.9 ± 1.6 kg/m3.

Question: And the mass density ([3]; 318.15 K, x1 = 0.7601)?
Answer: Its mass density is 1115.3 ± 1.7 kg/m3.

Question: And the mass density ([3]; 318.15 K, x1 = 0.8041)?
Answer: The mass density was 1126.1 ± 1.7 kg/m3.

Question: What about the mass density ([3]; 318.15 K, x1 = 0.8616) of the same compound?
Answer: Its mass density is 1139.6 ± 1.8 kg/m3.

Question: And the mass density ([3]; 318.15 K, x1 = 0.912)?
Answer: The mass density was 1150.8 ± 1.8 kg/m3.

Question: For CCCC[n+]1ccc(C)cc1.F[B-](F)(F)F [1-butyl-4-methylpyridinium tetrafluoroborate] + CCCCO, which excess molar enthalpy ([4]; 318.15 K, x1 = 0.0242) is on record?
Answer: Its excess molar enthalpy is 0.112 ± 0.00239 kcal/mol.

Question: What about the excess molar enthalpy ([4]; 318.16 K, x1 = 0.0613) of the same compound?
Answer: The excess molar enthalpy was 0.226 ± 0.00478 kcal/mol.

Question: What about the excess molar enthalpy ([4]; 318.17 K, x1 = 0.1029) of the same compound?
Answer: The excess molar enthalpy was 0.339 ± 0.00717 kcal/mol.

Question: And the excess molar enthalpy ([4]; 318.18 K, x1 = 0.1466)?
Answer: Its excess molar enthalpy is 0.429 ± 0.00908 kcal/mol.

Question: And the excess molar enthalpy ([4]; 318.19 K, x1 = 0.1938)?
Answer: The excess molar enthalpy was 0.527 ± 0.0112 kcal/mol.

Question: And the excess molar enthalpy ([4]; 318.2 K, x1 = 0.24)?
Answer: Its excess molar enthalpy is 0.601 ± 0.0129 kcal/mol.

Question: What about the excess molar enthalpy ([4]; 318.21 K, x1 = 0.2864) of the same compound?
Answer: Its excess molar enthalpy is 0.654 ± 0.0139 kcal/mol.

Question: And the excess molar enthalpy ([4]; 318.22 K, x1 = 0.3344)?
Answer: Its excess molar enthalpy is 0.694 ± 0.0148 kcal/mol.

Question: What about the excess molar enthalpy ([4]; 318.23 K, x1 = 0.3708) of the same compound?
Answer: Its excess molar enthalpy is 0.704 ± 0.0151 kcal/mol.

Question: What about the excess molar enthalpy ([4]; 318.24 K, x1 = 0.4149) of the same compound?
Answer: The excess molar enthalpy was 0.707 ± 0.0151 kcal/mol.

Question: What about the excess molar enthalpy ([4]; 318.25 K, x1 = 0.4635) of the same compound?
Answer: The excess molar enthalpy was 0.69 ± 0.0146 kcal/mol.

Question: What about the excess molar enthalpy ([4]; 318.26 K, x1 = 0.5162) of the same compound?
Answer: Its excess molar enthalpy is 0.667 ± 0.0141 kcal/mol.

Question: What about the excess molar enthalpy ([4]; 318.27 K, x1 = 0.5729) of the same compound?
Answer: Its excess molar enthalpy is 0.623 ± 0.0134 kcal/mol.

Question: And the excess molar enthalpy ([4]; 318.28 K, x1 = 0.6488)?
Answer: Its excess molar enthalpy is 0.542 ± 0.0115 kcal/mol.

Question: And the excess molar enthalpy ([4]; 318.29 K, x1 = 0.7232)?
Answer: The excess molar enthalpy was 0.463 ± 0.0098 kcal/mol.

Question: And the excess molar enthalpy ([4]; 318.3 K, x1 = 0.7962)?
Answer: The excess molar enthalpy was 0.361 ± 0.00765 kcal/mol.

Question: And the excess molar enthalpy ([4]; 318.31 K, x1 = 0.8569)?
Answer: The excess molar enthalpy was 0.278 ± 0.00598 kcal/mol.

Question: What about the excess molar enthalpy ([4]; 318.32 K, x1 = 0.9006) of the same compound?
Answer: Its excess molar enthalpy is 0.195 ± 0.0043 kcal/mol.

Question: What about the excess molar enthalpy ([4]; 318.33 K, x1 = 0.9435) of the same compound?
Answer: The excess molar enthalpy was 0.129 ± 0.00287 kcal/mol.

Question: What about the mass density ([3]; 298.15 K, x1 = 0.5948) of the same compound?
Answer: Its mass density is 1094.4 ± 1.7 kg/m3.

Question: What about the mass density ([3]; 298.15 K, x1 = 0.692) of the same compound?
Answer: Its mass density is 1120.2 ± 1.8 kg/m3.

Question: And the mass density ([3]; 298.15 K, x1 = 0.739)?
Answer: The mass density was 1131.5 ± 1.8 kg/m3.

Question: And the mass density ([3]; 298.15 K, x1 = 0.7851)?
Answer: Its mass density is 1141.8 ± 1.8 kg/m3.

Question: And the mass density ([3]; 298.15 K, x1 = 0.8916)?
Answer: The mass density was 1163.9 ± 1.9 kg/m3.

Question: And the mass density ([3]; 318.15 K, x1 = 0.0548)?
Answer: Its mass density is 833.2 ± 2.2 kg/m3.

Question: And the mass density ([3]; 318.15 K, x1 = 0.1169)?
Answer: The mass density was 875.7 ± 2 kg/m3.

Question: And the mass density ([3]; 318.15 K, x1 = 0.2301)?
Answer: The mass density was 940.7 ± 1.6 kg/m3.

Question: What about the mass density ([3]; 318.15 K, x1 = 0.3406) of the same compound?
Answer: Its mass density is 992.1 ± 1.2 kg/m3.

Question: What about the mass density ([3]; 318.15 K, x1 = 0.4471) of the same compound?
Answer: Its mass density is 1033.5 ± 1.4 kg/m3.

Question: And the mass density ([3]; 318.15 K, x1 = 0.564)?
Answer: The mass density was 1071.4 ± 1.5 kg/m3.

Question: What about the mass density ([3]; 318.15 K, x1 = 0.6758) of the same compound?
Answer: The mass density was 1102.2 ± 1.7 kg/m3.

Question: What about the mass density ([3]; 318.15 K, x1 = 0.7856) of the same compound?
Answer: The mass density was 1128.1 ± 1.7 kg/m3.

Question: What about the mass density ([3]; 318.15 K, x1 = 0.8427) of the same compound?
Answer: Its mass density is 1140 ± 1.8 kg/m3.

Question: What about the mass density ([3]; 318.15 K, x1 = 0.887) of the same compound?
Answer: Its mass density is 1148.6 ± 1.8 kg/m3.

Question: Which results are given for CCCC[n+]1ccc(C)cc1.F[B-](F)(F)F [1-butyl-4-methylpyridinium tetrafluoroborate] + CCCO?
Answer: excess molar enthalpy ([4]; 298.15 K, x1 = 0.012): 0.0315 ± 0.000956 kcal/mol; excess molar enthalpy ([4]; 298.15 K, x1 = 0.0243): 0.0516 ± 0.00143 kcal/mol; excess molar enthalpy ([4]; 298.15 K, x1 = 0.0308): 0.0719 ± 0.00191 kcal/mol; excess molar enthalpy ([4]; 298.15 K, x1 = 0.3198): 0.596 ± 0.0127 kcal/mol; excess molar enthalpy ([4]; 298.15 K, x1 = 0.3532): 0.588 ± 0.0124 kcal/mol; excess molar enthalpy ([4]; 298.15 K, x1 = 0.3908): 0.579 ± 0.0124 kcal/mol; excess molar enthalpy ([4]; 298.15 K, x1 = 0.4344): 0.56 ± 0.012 kcal/mol; excess molar enthalpy ([4]; 298.15 K, x1 = 0.4819): 0.54 ± 0.0115 kcal/mol; excess molar enthalpy ([4]; 298.15 K, x1 = 0.5374): 0.505 ± 0.0108 kcal/mol; excess molar enthalpy ([4]; 298.15 K, x1 = 0.6008): 0.457 ± 0.0098 kcal/mol; excess molar enthalpy ([4]; 298.15 K, x1 = 0.6734): 0.394 ± 0.00837 kcal/mol; excess molar enthalpy ([4]; 298.15 K, x1 = 0.752): 0.315 ± 0.00669 kcal/mol; excess molar enthalpy ([4]; 298.15 K, x1 = 0.8319): 0.237 ± 0.00502 kcal/mol; excess molar enthalpy ([4]; 298.15 K, x1 = 0.9181): 0.138 ± 0.00311 kcal/mol; excess molar enthalpy ([4]; 318.15 K, x1 = 0.0189): 0.0927 ± 0.00263 kcal/mol; excess molar enthalpy ([4]; 318.16 K, x1 = 0.054): 0.229 ± 0.00502 kcal/mol; excess molar enthalpy ([4]; 318.17 K, x1 = 0.093): 0.351 ± 0.00765 kcal/mol; excess molar enthalpy ([4]; 318.18 K, x1 = 0.1341): 0.454 ± 0.0098 kcal/mol; excess molar enthalpy ([4]; 318.19 K, x1 = 0.1775): 0.543 ± 0.0117 kcal/mol; excess molar enthalpy ([4]; 318.2 K, x1 = 0.2167): 0.609 ± 0.0129 kcal/mol; excess molar enthalpy ([4]; 318.21 K, x1 = 0.2312): 0.641 ± 0.0136 kcal/mol; excess molar enthalpy ([4]; 318.22 K, x1 = 0.2581): 0.67 ± 0.0143 kcal/mol; excess molar enthalpy ([4]; 318.23 K, x1 = 0.2912): 0.692 ± 0.0148 kcal/mol; excess molar enthalpy ([4]; 318.24 K, x1 = 0.331): 0.708 ± 0.0151 kcal/mol; excess molar enthalpy ([4]; 318.25 K, x1 = 0.3847): 0.704 ± 0.0151 kcal/mol; excess molar enthalpy ([4]; 318.26 K, x1 = 0.4488): 0.69 ± 0.0146 kcal/mol; excess molar enthalpy ([4]; 318.27 K, x1 = 0.5249): 0.65 ± 0.0139 kcal/mol; excess molar enthalpy ([4]; 318.28 K, x1 = 0.6069): 0.585 ± 0.0124 kcal/mol; excess molar enthalpy ([4]; 318.29 K, x1 = 0.6964): 0.496 ± 0.0105 kcal/mol; excess molar enthalpy ([4]; 318.3 K, x1 = 0.7815): 0.405 ± 0.0086 kcal/mol; excess molar enthalpy ([4]; 318.31 K, x1 = 0.846): 0.309 ± 0.00669 kcal/mol; excess molar enthalpy ([4]; 318.32 K, x1 = 0.9043): 0.197 ± 0.0043 kcal/mol; excess molar enthalpy ([4]; 318.33 K, x1 = 0.9568): 0.104 ± 0.00239 kcal/mol; mass density ([3]; 298.15 K, x1 = 0.0154): 815.6 ± 2.3 kg/m3; mass density ([3]; 298.15 K, x1 = 0.0271): 827.2 ± 2.3 kg/m3; mass density ([3]; 298.15 K, x1 = 0.2988): 1006.8 ± 1.3 kg/m3; mass density ([3]; 298.15 K, x1 = 0.3987): 1047.4 ± 1.5 kg/m3; mass density ([3]; 298.15 K, x1 = 0.4965): 1079.8 ± 1.6 kg/m3; mass density ([3]; 298.15 K, x1 = 0.5972): 1107.8 ± 1.8 kg/m3; mass density ([3]; 298.15 K, x1 = 0.6889): 1129.1 ± 1.8 kg/m3; mass density ([3]; 298.15 K, x1 = 0.696): 1130.6 ± 1.8 kg/m3; mass density ([3]; 298.15 K, x1 = 0.7812): 1147.9 ± 1.9 kg/m3; mass density ([3]; 298.15 K, x1 = 0.8841): 1165.9 ± 1.9 kg/m3; mass density ([3]; 318.15 K, x1 = 0.0549): 837.6 ± 2.2 kg/m3; mass density ([3]; 318.15 K, x1 = 0.1008): 875.1 ± 2 kg/m3; mass density ([3]; 318.15 K, x1 = 0.1969): 939.6 ± 1.6 kg/m3; mass density ([3]; 318.15 K, x1 = 0.3103): 997.6 ± 1.2 kg/m3; mass density ([3]; 318.15 K, x1 = 0.3828): 1027.5 ± 1.4 kg/m3; mass density ([3]; 318.15 K, x1 = 0.4381): 1047.4 ± 1.5 kg/m3; mass density ([3]; 318.15 K, x1 = 0.4534): 1052.4 ± 1.5 kg/m3; mass density ([3]; 318.15 K, x1 = 0.4901): 1064 ± 1.5 kg/m3; mass density ([3]; 318.15 K, x1 = 0.6039): 1095.2 ± 1.7 kg/m3; mass density ([3]; 318.15 K, x1 = 0.6726): 1111.2 ± 1.7 kg/m3; mass density ([3]; 318.15 K, x1 = 0.8248): 1141.4 ± 1.8 kg/m3; mass density ([3]; 318.15 K, x1 = 0.8967): 1156.9 ± 1.8 kg/m3; mass density ([3]; 318.15 K, x1 = 0.9191): 1153.3 ± 1.8 kg/m3
